Assays:
Test in all cases: relative viability (nuclei count vs DMSO), 5 days (fraction); higher = more cells survive
CAP-232 = compound: C[C@H]([C@@H](C(=O)N)NC(=O)[C@@H]1CSSC[C@@H](C(=O)N[C@H](C(=O)N[C@@H](C(=O)N[C@H](C(=O)N1)CCCCN)CC2=CNC3=CC=CC=C32)CC4=CC=C(C=C4)O)NC(=O)[C@@H](CC5=CC=CC=C5)N)O [CAP-232]
Summary of the method: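 MetaXpress counted nuclei in 4× images of lung cancer cell lines that had been fixed, permeabilised and Hoechst-stained in one step. Before that, cells in 1536-well plates were kept overnight at 37 °C, pinned with five √10-spaced library-drug doses on vehicle-anchored plates, and cultured 5 days without medium change. Viability takes treated-well nuclei over vehicle-well nuclei and uses the median across plates. Plates were accepted only at control CV below 25% and at least one doubling.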

CAP-232 + Tozasertib = compound: C[C@H]([C@@H](C(=O)N)NC(=O)[C@@H]1CSSC[C@@H](C(=O)N[C@H](C(=O)N[C@@H](C(=O)N[C@H](C(=O)N1)CCCCN)CC2=CNC3=CC=CC=C32)CC4=CC=C(C=C4)O)NC(=O)[C@@H](CC5=CC=CC=C5)N)O [CAP-232] + Cc1cc(Nc2cc(N3CCN(C)CC3)nc(Sc3ccc(NC(=O)C4CC4)cc3)n2)n[nH]1 [Tozasertib] (partner 0.1 µM)
Summary of the method: (§1)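 Lung cancer cell lines in 1536-well plates were dosed by pin tool the day after seeding, either with one drug alone or with a fixed anchor-drug dose plus five library-drug doses (not always all listed) in √10 steps. After 5 days, cells were fixed and their nuclei stained in one step (final 0.05% Triton X-100, 1% formaldehyde, 1 ug/ml Hoechst), then counted on 4× images. Relative viability is the nuclei count in treated wells divided by that in vehicle wells. Values are medians of duplicate plates.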

CAP-232 + Pemetrexed = compound: C[C@H]([C@@H](C(=O)N)NC(=O)[C@@H]1CSSC[C@@H](C(=O)N[C@H](C(=O)N[C@@H](C(=O)N[C@H](C(=O)N1)CCCCN)CC2=CNC3=CC=CC=C32)CC4=CC=C(C=C4)O)NC(=O)[C@@H](CC5=CC=CC=C5)N)O [CAP-232] + Nc1nc2[nH]cc(CCc3ccc(C(=O)N[C@@H](CCC(=O)O)C(=O)O)cc3)c2c(=O)[nH]1 [Pemetrexed] (partner 0.2 µM)
Summary of the method: as §1

CAP-232 + Olaparib = compound: C[C@H]([C@@H](C(=O)N)NC(=O)[C@@H]1CSSC[C@@H](C(=O)N[C@H](C(=O)N[C@@H](C(=O)N[C@H](C(=O)N1)CCCCN)CC2=CNC3=CC=CC=C32)CC4=CC=C(C=C4)O)NC(=O)[C@@H](CC5=CC=CC=C5)N)O [CAP-232] + O=C(c1cc(Cc2n[nH]c(=O)c3ccccc23)ccc1F)N1CCN(C(=O)C2CC2)CC1 [Olaparib] (partner 8 µM)
Summary of the method: as §1

CAP-232 + Palbociclib = compound: C[C@H]([C@@H](C(=O)N)NC(=O)[C@@H]1CSSC[C@@H](C(=O)N[C@H](C(=O)N[C@@H](C(=O)N[C@H](C(=O)N1)CCCCN)CC2=CNC3=CC=CC=C32)CC4=CC=C(C=C4)O)NC(=O)[C@@H](CC5=CC=CC=C5)N)O [CAP-232] + CC(=O)c1c(C)c2cnc(Nc3ccc(N4CCNCC4)cn3)nc2n(C2CCCC2)c1=O [Palbociclib] (partner 0.5 µM)
Summary of the method: as §1

CAP-232 + AZD7762 = compound: C[C@H]([C@@H](C(=O)N)NC(=O)[C@@H]1CSSC[C@@H](C(=O)N[C@H](C(=O)N[C@@H](C(=O)N[C@H](C(=O)N1)CCCCN)CC2=CNC3=CC=CC=C32)CC4=CC=C(C=C4)O)NC(=O)[C@@H](CC5=CC=CC=C5)N)O [CAP-232] + NC(=O)Nc1cc(-c2cccc(F)c2)sc1C(=O)N[C@H]1CCCNC1 [AZD7762] (partner 0.2 µM)
Summary of the method: as §1

CAP-232 + OSI-027 = compound: C[C@H]([C@@H](C(=O)N)NC(=O)[C@@H]1CSSC[C@@H](C(=O)N[C@H](C(=O)N[C@@H](C(=O)N[C@H](C(=O)N1)CCCCN)CC2=CNC3=CC=CC=C32)CC4=CC=C(C=C4)O)NC(=O)[C@@H](CC5=CC=CC=C5)N)O [CAP-232] + COc1cccc2cc(-c3nc([C@H]4CC[C@H](C(=O)O)CC4)n4ncnc(N)c34)[nH]c12 [OSI-027] (partner 0.5 µM)
Summary of the method: as §1

CAP-232 + Decitabine = compound: C[C@H]([C@@H](C(=O)N)NC(=O)[C@@H]1CSSC[C@@H](C(=O)N[C@H](C(=O)N[C@@H](C(=O)N[C@H](C(=O)N1)CCCCN)CC2=CNC3=CC=CC=C32)CC4=CC=C(C=C4)O)NC(=O)[C@@H](CC5=CC=CC=C5)N)O [CAP-232] + Nc1ncn([C@H]2C[C@H](O)[C@@H](CO)O2)c(=O)n1 [Decitabine] (partner 2 µM)
Summary of the method: as §1

CAP-232 + Vorinostat = compound: C[C@H]([C@@H](C(=O)N)NC(=O)[C@@H]1CSSC[C@@H](C(=O)N[C@H](C(=O)N[C@@H](C(=O)N[C@H](C(=O)N1)CCCCN)CC2=CNC3=CC=CC=C32)CC4=CC=C(C=C4)O)NC(=O)[C@@H](CC5=CC=CC=C5)N)O [CAP-232] + O=C(CCCCCCC(=O)Nc1ccccc1)NO [Vorinostat] (partner 1 µM)
Summary of the method: as §1

CAP-232 + Trametinib = compound: C[C@H]([C@@H](C(=O)N)NC(=O)[C@@H]1CSSC[C@@H](C(=O)N[C@H](C(=O)N[C@@H](C(=O)N[C@H](C(=O)N1)CCCCN)CC2=CNC3=CC=CC=C32)CC4=CC=C(C=C4)O)NC(=O)[C@@H](CC5=CC=CC=C5)N)O [CAP-232] + CC(=O)Nc1cccc(-n2c(=O)n(C3CC3)c(=O)c3c(Nc4ccc(I)cc4F)n(C)c(=O)c(C)c32)c1 [Trametinib] (partner 0.02 µM)
Summary of the method: as §1

With NCI-H1648 the relative viability (CAP-232; 0.4 µM) was 0.984, the relative viability (CAP-232; 1.265 µM) was 0.761 and the relative viability (CAP-232; 4 µM) was 0.914. The relative viability (CAP-232; 12.65 µM) was 0.885, the relative viability (CAP-232 + Tozasertib; first compound 0.4 µM) was 0.35 and the relative viability (CAP-232 + Tozasertib; first compound 1.265 µM) was 0.594. The relative viability (CAP-232 + Tozasertib; first compound 4 µM) was 0.441, the relative viability (CAP-232 + Tozasertib; first compound 12.65 µM) was 0.4 and the relative viability (CAP-232 + Pemetrexed; first compound 0.4 µM) was 1.05. For the same cell line, the relative viability (CAP-232 + Pemetrexed; first compound 4 µM) was 0.92, the relative viability (CAP-232 + Pemetrexed; first compound 12.65 µM) was 0.776 and the relative viability (CAP-232 + Olaparib; first compound 0.4 µM) was 0.698. The relative viability (CAP-232 + Olaparib; first compound 4 µM) was 0.664, the relative viability (CAP-232 + Olaparib; first compound 12.65 µM) was 0.644 and the relative viability (CAP-232 + Palbociclib; first compound 0.4 µM) was 0.27. It also gave a relative viability (CAP-232 + Palbociclib; first compound 4 µM) of 0.293, a relative viability (CAP-232 + Palbociclib; first compound 12.65 µM) of 0.252 and a relative viability (CAP-232 + AZD7762; first compound 0.4 µM) of 0.618. It also gave a relative viability (CAP-232 + AZD7762; first compound 4 µM) of 0.77, a relative viability (CAP-232 + AZD7762; first compound 12.65 µM) of 0.532 and a relative viability (CAP-232 + OSI-027; first compound 0.4 µM) of 0.238. The relative viability (CAP-232 + OSI-027; first compound 1.265 µM) was 0.241, the relative viability (CAP-232 + OSI-027; first compound 4 µM) was 0.265 and the relative viability (CAP-232 + OSI-027; first compound 12.65 µM) was 0.216. The relative viability (CAP-232 + Decitabine; first compound 0.4 µM) was 0.524, the relative viability (CAP-232 + Decitabine; first compound 4 µM) was 0.565 and the relative viability (CAP-232 + Decitabine; first compound 12.65 µM) was 0.466. For the same cell line, the relative viability (CAP-232 + Vorinostat; first compound 0.4 µM) was 0.292, the relative viability (CAP-232 + Vorinostat; first compound 4 µM) was 0.453 and the relative viability (CAP-232 + Vorinostat; first compound 12.65 µM) was 0.411. For the same cell line, the relative viability (CAP-232 + Trametinib; first compound 0.4 µM) was 0.358, the relative viability (CAP-232 + Trametinib; first compound 4 µM) was 0.314 and the relative viability (CAP-232 + Trametinib; first compound 12.65 µM) was 0.472.
